Molecular target: recombinant human LRRK2 (catalytic domain only [amino acids 970-2527], GST-tagged) (Homo sapiens (Human), UniProt Q5S007)
Test: LRRK2 Enzymatic Assay
Assay type: biochemical
Details: LRRKtide substrate, [32P]-ATP
Summary of the method: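 Radiometric P81 filter-binding read-out of [32P]-ATP transfer to LRRKtide (20 μM) by 30 nM GST-LRRK2 970-2527, 2 h at room temperature after 20 min compound preincubation (10 μM–0.5 nM, 1% DMSO). IC50 derived from % remaining activity versus DMSO.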

Chain of recombinant human LRRK2 (catalytic domain only [amino acids 970-2527], GST-tagged) (Q5S007 970-2527): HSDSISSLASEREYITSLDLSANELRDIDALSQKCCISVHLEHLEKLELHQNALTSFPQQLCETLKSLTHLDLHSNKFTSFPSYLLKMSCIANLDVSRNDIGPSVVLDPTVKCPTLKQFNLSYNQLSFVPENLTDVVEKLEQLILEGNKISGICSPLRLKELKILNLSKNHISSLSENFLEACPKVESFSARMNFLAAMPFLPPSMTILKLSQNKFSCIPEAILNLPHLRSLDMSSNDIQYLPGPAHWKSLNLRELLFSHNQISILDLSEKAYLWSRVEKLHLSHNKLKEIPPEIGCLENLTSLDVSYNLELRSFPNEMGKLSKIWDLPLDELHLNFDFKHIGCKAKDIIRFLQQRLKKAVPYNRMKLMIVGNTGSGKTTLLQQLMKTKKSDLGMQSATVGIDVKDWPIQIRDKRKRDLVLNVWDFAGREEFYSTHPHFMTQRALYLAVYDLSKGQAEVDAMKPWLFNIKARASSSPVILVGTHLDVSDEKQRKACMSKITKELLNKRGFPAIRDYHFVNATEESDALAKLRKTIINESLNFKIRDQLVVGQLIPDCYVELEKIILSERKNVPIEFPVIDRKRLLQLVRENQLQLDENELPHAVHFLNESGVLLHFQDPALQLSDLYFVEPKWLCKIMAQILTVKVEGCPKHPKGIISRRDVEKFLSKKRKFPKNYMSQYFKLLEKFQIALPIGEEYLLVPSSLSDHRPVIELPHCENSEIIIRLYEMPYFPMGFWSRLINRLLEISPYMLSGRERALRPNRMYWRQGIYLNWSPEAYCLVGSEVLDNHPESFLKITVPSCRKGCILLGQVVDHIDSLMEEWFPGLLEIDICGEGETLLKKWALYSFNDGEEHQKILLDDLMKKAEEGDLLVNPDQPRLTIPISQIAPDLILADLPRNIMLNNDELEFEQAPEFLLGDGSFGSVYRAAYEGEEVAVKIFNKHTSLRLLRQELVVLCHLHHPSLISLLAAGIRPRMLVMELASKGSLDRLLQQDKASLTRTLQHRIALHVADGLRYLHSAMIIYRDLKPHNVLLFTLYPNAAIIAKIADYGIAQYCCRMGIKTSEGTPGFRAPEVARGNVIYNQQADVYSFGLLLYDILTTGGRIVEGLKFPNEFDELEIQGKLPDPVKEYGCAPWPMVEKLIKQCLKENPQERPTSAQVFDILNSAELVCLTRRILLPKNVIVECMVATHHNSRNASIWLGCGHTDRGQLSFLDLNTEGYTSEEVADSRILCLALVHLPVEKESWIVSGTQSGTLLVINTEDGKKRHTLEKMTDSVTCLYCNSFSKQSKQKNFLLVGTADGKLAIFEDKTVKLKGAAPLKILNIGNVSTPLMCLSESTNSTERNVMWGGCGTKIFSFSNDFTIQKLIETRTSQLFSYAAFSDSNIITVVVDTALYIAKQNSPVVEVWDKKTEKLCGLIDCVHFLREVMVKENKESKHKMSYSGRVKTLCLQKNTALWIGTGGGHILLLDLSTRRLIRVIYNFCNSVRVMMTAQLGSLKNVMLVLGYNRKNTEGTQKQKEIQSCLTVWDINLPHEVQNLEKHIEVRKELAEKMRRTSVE

With `CC(=O)N[C@H]1CC[C@H](COc2nc(Nc3cnn(C(C)(C)C#N)c3)ncc2F)CC1` [Example 186, N-((1R,4R)-4-(((2-((1-(2-cyanopropan-2-yl)-1H-pyrazol-4-yl)amino)-5-fluoropyrimidin-4-yl)oxy)methyl)cyclo-hexyl)acetamide] the IC50 was < 50 nM.

`CC(=O)N[C@H]1CC[C@H](COc2nc(Nc3cnn(C(F)(F)F)c3)ncc2F)CC1` [Example 187, N-((1R,4R)-4-(((5-fluoro-2-((1-(trifluoromethyl)-1H-pyrazol-4-yl)amino)pyrimidin-4-yl)oxy)methyl)cyclo-hexyl)acetamide] showed an IC50 of 200 to 400 nM.

With `CC(=O)N[C@H]1CC[C@H](COc2nc(Nc3cnn(CC(F)(F)F)c3)ncc2F)CC1` [Example 188, N-((1R,4R)-4-(((5-fluoro-2-((1-(2,2,2-trifluoroethyl)-1H-pyrazol-4-yl)amino)pyrimidin-4-yl)oxy)methyl)cyclo-hexyl)acetamide] the IC50 was < 50 nM.

In the case of `CC(=O)N[C@H]1CC[C@H](COc2nc(Nc3cnn(CCF)c3)ncc2F)CC1` [Example 189, N-((1R,4R)-4-(((5-fluoro-2-((1-(2-fluoroethyl)-1H-pyrazol-4-yl)amino)pyrimidin-4-yl)oxy)methyl)cyclo-hexyl)acetamide], the IC50 is reported as < 50 nM.

For `COCCn1cc(Nc2ncc(F)c(OC[C@H]3CC[C@H](NC(C)=O)CC3)n2)cn1` [Example 191, N-((1R,4R)-4-(((5-fluoro-2-((1-(2-methoxyethyl)-1H-pyrazol-4-yl)amino)pyrimidin-4-yl)oxy)methyl)cyclo-hexyl)acetamide], the IC50 was < 50 nM.

`CC(=O)N[C@H]1CC[C@H](COc2nc(Nc3cnn(C4COC4)c3)ncc2F)CC1` [Example 192, N-((1R,4R)-4-(((5-fluoro-2-((1-(oxetan-3-yl)-1H-pyrazol-4-yl)amino)pyrimidin-4-yl)oxy)methyl)cyclo-hexyl)acetamide] gave an IC50 of 50 to 200 nM.

For `CC(=O)N[C@H]1CC[C@H](COc2nc(Nc3cnn(C4CCOCC4)c3)ncc2F)CC1` [Example 193, N-((1R,4R)-4-(((5-fluoro-2-((1-(tetrahydro-2H-pyran-4-yl)-1H-pyrazol-4-yl)amino)pyrimidin-4-yl)oxy)methyl)cyclo-hexyl)acetamide], the IC50 was < 50 nM.

`CC(=O)N[C@H]1CC[C@H](COc2nc(Nc3cn(C)nc3C)ncc2F)CC1` [Example 194, N-((1R,4R)-4-(((2-((1,3-dimethyl-1H-pyrazol-4-yl)amino)-5-fluoropyrimidin-4-yl)oxy)methyl)cyclo-hexyl)acetamide] gave an IC50 of 50 to 200 nM.

For `CC(=O)N[C@H]1CC[C@H](COc2nc(Nc3cn(C(C)C)nc3C)ncc2F)CC1` [Example 195, N-((1R,4R)-4-(((5-fluoro-2-((1-isopropyl-3-methyl-1H-pyrazol-4-yl)amino)pyrimidin-4-yl)oxy)methyl)cyclo-hexyl)acetamide], the IC50 was < 50 nM.

In the case of `CC(=O)N[C@H]1CC[C@H](COc2nc(Nc3cn(C4CC4)nc3C)ncc2F)CC1` [Example 196, N-((1R,4R)-4-(((2-((1-cyclopropyl-3-methyl-1H-pyrazol-4-yl)amino)-5-fluoropyrimidin-4-yl)oxy)methyl)cyclo-hexyl)acetamide], the IC50 is reported as < 50 nM.

In the case of `CC(=O)N[C@H]1CC[C@H](COc2nc(Nc3cn(C(F)F)nc3C)ncc2F)CC1` [Example 197, N-((1R,4R)-4-(((2-((1-(difluoromethyl)-3-methyl-1H-pyrazol-4-yl)amino)-5-fluoropyrimidin-4-yl)oxy)methyl)cyclo-hexyl)acetamide], the IC50 is reported as 50 to 200 nM.

For `CCc1nn(C)cc1Nc1ncc(F)c(OC[C@H]2CC[C@H](NC(C)=O)CC2)n1` [Example 198, N-((1R,4R)-4-(((2-((3-ethyl-1-methyl-1H-pyrazol-4-yl)amino)-5-fluoropyrimidin-4-yl)oxy)methyl)cyclo-hexyl)acetamide], the IC50 was < 50 nM.

`CC(=O)N[C@H]1CC[C@H](COc2nc(Nc3cnn(C(C)(C)C#N)c3C)ncc2F)CC1` [Example 199, N-((1R,4R)-4-(((2-((1-(2-cyanopropan-2-yl)-5-methyl-1H-pyrazol-4-yl)amino)-5-fluoropyrimidin-4-yl)oxy)methyl)cyclo-hexyl)acetamide] was tested, and the IC50 was < 50 nM.

For `CC(=O)N[C@H]1CC[C@H](COc2nc(Nc3cnn(C(F)F)c3C)ncc2F)CC1` [Example 200, N-((1R,4R)-4-(((2-((1-(difluoromethyl)-5-methyl-1H-pyrazol-4-yl)amino)-5-fluoropyrimidin-4-yl)oxy)methyl)cyclo-hexyl)acetamide], the IC50 was < 50 nM.

With `CC(=O)N[C@H]1CC[C@H](COc2nc(Nc3cn(C)nc3Cl)ncc2F)CC1` [Example 201, N-((1R,4R)-4-(((2-((3-chloro-1-methyl-1H-pyrazol-4-yl)amino)-5-fIuoropyrimidin-4-yl)oxy)methyl)cyclo-hexyl)acetamide] the IC50 was < 50 nM.

With `CC(=O)N[C@H]1CC[C@H](COc2nc(Nc3cn(C(C)C)nc3Cl)ncc2F)CC1` [Example 202, N-((1R,4R)-4-(((2-((3-chloro-1-isopropyl-1H-pyrazol-4-yl)amino)-5-fluoropyrimidin-4-yl)oxy)methyl)cyclo-hexyl)acetamide] the IC50 was < 50 nM.

For `CC(=O)N[C@H]1CC[C@H](COc2nc(Nc3cn(C4CC4)nc3Cl)ncc2F)CC1` [Example 203, N-((1R,4R)-4-(((2-((3-chloro-1-cyclopropyl-1H-pyrazol-4-yl)amino)-5-fluoropyrimidin-4-yl)oxy)methyl)cyclo-hexyl)acetamide], the IC50 was < 50 nM.

In the case of `CC(=O)N[C@H]1CC[C@H](COc2nc(Nc3cnn(CCO)c3Cl)ncc2F)CC1` [Example 204, N-((1R,4R)-4-(((2-((5-chloro-1-(2-hydroxyethyl)-1H-pyrazol-4-yl)amino)-5-fluoropyrimidin-4-yl)oxy)methyl)cyclo-hexyl)acetamide], the IC50 is reported as < 50 nM.

In the case of `COCCn1ncc(Nc2ncc(F)c(OC[C@H]3CC[C@H](NC(C)=O)CC3)n2)c1Cl` [Example 205, N-((1R,4R)-4-(((2-((5-chloro-1-(2-methoxyethyl)-1H-pyrazol-4-yl)amino)-5-fluoropyrimidin-4-yl)oxy)methyl)cyclo-hexyl)acetamide], the IC50 is reported as < 50 nM.

In the case of `CC(=O)N[C@H]1CC[C@H](COc2nc(Nc3cnn(C4CCOCC4)c3Cl)ncc2F)CC1` [Example 206, N-((1R,4R)-4-(((2-((5-chloro-1-(tetrahydro-2H-pyran-4-yl)-1H-pyrazol-4-yl)amino)-5-fluoropyrimidin-4-yl)oxy)methyl)cyclo-hexyl)acetamide], the IC50 is reported as < 50 nM.

For `COc1nn(C(C)C)cc1Nc1ncc(F)c(OC[C@H]2CC[C@H](NC(C)=O)CC2)n1` [Example 207, N-((1R,4R)-4-(((5-fluoro-2-((1-isopropyl-3-methoxy-1H-pyrazol-4-yl)amino)pyrimidin-4-yl)oxy)methyl)cyclo-hexyl)acetamide], the IC50 was 50 to 200 nM.

With `COc1nn(C2CC2)cc1Nc1ncc(F)c(OC[C@H]2CC[C@H](NC(C)=O)CC2)n1` [Example 208, N-((1R,4R)-4-(((2-((1-cyclopropyl-3-methoxy-1H-pyrazol-4-yl)amino)-5-fluoropyrimidin-4-yl)oxy)methyl)cyclo-hexyl)acetamide] the IC50 was < 50 nM.

`O=C(N[C@H]1CC[C@H](COc2nc(Nc3ccc(N4C5CCC4COC5)cc3)ncc2F)CC1)C(F)(F)F` [Example 209, N-((1R,4R)-4-(((2-((4-(3-oxa-8-aza-bicyclo[3.2.1]octan-8-yl)phenyl)amino)-5-fluoro-pyrimidin-4-yl)oxy)methyl)cyclohexyl)-2,2,2-trifluoro-acetamide] was tested, and the IC50 was < 50 nM.

In the case of `CC(C)n1cc(Nc2ncc(F)c(OC[C@H]3CC[C@H](NC(=O)C(F)(F)F)CC3)n2)cn1` [Example 210, 2,2,2-trifluoro-N-((1R,4R)-4-(((5-fluoro-2-((1-isopropyl-1H-pyrazol-4-yl)amino)pyrimidin-4-yl)oxy)methyl)cyclohexyl) acetamide], the IC50 is reported as < 50 nM.

In the case of `Cc1nn(C(C)C)cc1Nc1ncc(F)c(OC[C@H]2CC[C@H](NC(=O)C(F)(F)F)CC2)n1` [Example 211, 2,2,2-trifluoro-N-((1R,4R)-4-(((5-fluoro-2-((1-isopropyl-3-methyl-1H-pyrazol-4-yl)amino)pyrimidin-4-yl)oxy)methyl)cyclohexyl) acetamide], the IC50 is reported as < 50 nM.

`Cc1nn(C(C)(C)C#N)cc1Nc1ncc(F)c(OC[C@H]2CC[C@H](NC(=O)C(F)(F)F)CC2)n1` [Example 212, N-((1R,4R)-4-(((2-((1-(2-cyanopropan-2-yl)-3-methyl-1H-pyrazol-4-yl)amino)-5-fluoro-pyrimidin-4-yl)oxy)methyl)cyclohexyl)-2,2,2-trifluoro-acetamide] gave an IC50 of 50 to 200 nM.

With `COc1nn(C(C)C)cc1Nc1ncc(F)c(OC[C@H]2CC[C@H](NC(=O)C(F)(F)F)CC2)n1` [Example 213, 2,2,2-trifluoro-N-((1R,4R)-4-(((5-fluoro-2-((1-isopropyl-3-methoxy-1H-pyrazol-4-yl)amino)pyrimidin-4-yl)oxy)methyl)cyclohexyl) acetamide] the IC50 was < 50 nM.

In the case of `COc1cc(C(=O)N2CCOCC2)c(F)cc1Nc1ncc(F)c(OC[C@H]2CC[C@H](O)CC2)n1` [Example 214, (2-fluoro-4-((5-fluoro-4-(((1R,4R)-4 hydroxycyclohexyl)methoxy)pyrimidin-2-yl)amino)-5-methoxyphenyl)(morpholino)methanone], the IC50 is reported as 50 to 200 nM.

For `O[C@H]1CC[C@H](COc2nc(Nc3ccc(N4CC5(CCOC5)C4)cc3)ncc2F)CC1` [Example 215, (1R,4R)-4-(((2-((4-(6-oxa-2-azaspiro[3.4]octan-2-yl)phenyl)amino)-5-fluoropyrimidin-4-yl)oxy)methyl)cyclohexan-1-ol], the IC50 was < 50 nM.

`Cn1cc(Nc2ncc(F)c(OC[C@H]3CC[C@H](O)CC3)n2)cn1` [Example 216, (1R,4R)-4-(((5-fluoro-2-((1-methyl-1H-pyrazol-4-yl)amino)pyrimidin-4-yl)oxy)methyl)cyclohexan-1-ol] was tested, and the IC50 was < 50 nM.

Work on `CCn1cc(Nc2ncc(F)c(OC[C@H]3CC[C@H](O)CC3)n2)cn1` [Example 217, (1R,4R)-4-(((2-((1-ethyl-1H-pyrazol-4-yl)amino)-5-fluoropyrimidin-4-yl)oxy)methyl)cyclohexan-1-ol] yielded an IC50 of 50 to 200 nM.
